Experimental data published in ChEMBL document CHEMBL4382233, “Discovery of novel arylethenesulfonyl fluorides as potential candidates against methicillin-resistant of Staphylococcus aureus (MRSA) for overcoming multidrug resistance of bacterial infections” (2019).
≈ marks a conversion by molar mass, not a printed value.

How the values were obtained:
Format in all cases: functional
[1] = test system: Staphylococcus aureus; experiment: Antibacterial activity against methicillin-resistant Staphylococcus aureus after overnight incubation by micro broth dilution analysis
[2] = test system: Staphylococcus aureus; experiment: Antibacterial activity against methicillin-resistant Staphylococcus aureus assessed as zone of inhibition at 50 ug/mL after 24 hrs by agar disc diffusion method; details: read-out: IZ
[3] = test system: Staphylococcus haemolyticus; experiment: Antibacterial activity against methicillin-resistant Staphylococcus haemolyticus after overnight incubation by micro broth dilution analysis
[4] = test system: Staphylococcus haemolyticus; experiment: Antibacterial activity against methicillin-resistant Staphylococcus haemolyticus assessed as zone of inhibition at 50 ug/mL after 24 hrs by agar disc diffusion method; details: read-out: IZ
[5] = test system: Staphylococcus epidermidis; experiment: Antibacterial activity against methicillin-resistant Staphylococcus epidermidis after overnight incubation by micro broth dilution analysis
[6] = test system: Staphylococcus epidermidis; experiment: Antibacterial activity against methicillin-resistant Staphylococcus epidermidis assessed as zone of inhibition at 20 ug/mL after 24 hrs by agar disc diffusion method; details: read-out: IZ

Row | Structure (SMILES) | MIC99 [1] [µg/mL] | zone of inhibition at 50 µg/mL [2] [mm] | MIC99 [3] [µg/mL] | zone of inhibition at 50 µg/mL [4] [mm] | MIC99 [5] [µg/mL] | zone of inhibition at 20 µg/mL [6] [mm]
1 | Cc1ccc(S(=O)(=O)n2cc(/C=C/S(=O)(=O)F)c3ccccc32)cc1 | 47.1 (≈ 124 µM) | 5.1 | 58 (≈ 153 µM) | 4.2 | 51.2 (≈ 135 µM) | 4.1
2 | O=Cc1ccc(/C=C/S(=O)(=O)F)o1 | 0.845 (≈ 4.14 µM) | 7.2 | 55.1 (≈ 270 µM) | 4.5 | 61 (≈ 299 µM) | 7.4
3 | O=S(=O)(F)/C=C/C=C/c1ccc(C(F)(F)F)cc1 | 59.1 (≈ 211 µM) | 5.1 | 67 (≈ 239 µM) | 4.5 | 55.2 (≈ 197 µM) | 6.5
4 | O=S(=O)(F)/C=C/c1coc2ccccc12 | 45 (≈ 199 µM) | 6.2 | 51 (≈ 225 µM) | 3.5 | 52.1 (≈ 231 µM) | 6.4
5 | O=S(=O)(F)/C=C/c1cccs1 | 52 (≈ 271 µM) | 5.2 | 50.6 (≈ 263 µM) | 4.1 | 50.1 (≈ 260 µM) | 4.5
6 | O=S(=O)(F)/C=C/c1ccc2ccccc2c1 | 47 (≈ 199 µM) | 7.2 | 65.5 (≈ 277 µM) | 3.5 | 43.1 (≈ 183 µM) | 4.4
7 | CCOC(=O)c1ccc(/C=C/S(=O)(=O)F)cc1 | 41.1 (≈ 159 µM) | 6.1 | 67.3 (≈ 261 µM) | 4.2 | 56.1 (≈ 217 µM) | 5.5
8 | O=S(=O)(F)/C=C/c1ccc(Oc2ccccc2)cc1 | 51.2 (≈ 184 µM) | 4.4 | 61.1 (≈ 220 µM) | 4.1 | 44.2 (≈ 159 µM) | 6.4
9 | Cc1ccc(S(=O)(=O)n2c3ccccc3c3cc(/C=C/S(=O)(=O)F)ccc32)cc1 | 48 (≈ 112 µM) | 4.3 | 58 (≈ 135 µM) | 3.3 | 50.1 (≈ 117 µM) | 3.5
10 | O=S(=O)(F)/C=C/C=C/c1ccc(F)c(F)c1 | 50.1 (≈ 202 µM) | 6.1 | 55.1 (≈ 222 µM) | 4.3 | 51.6 (≈ 208 µM) | 5.5
11 | O=Cc1ccc(/C=C/S(=O)(=O)F)cc1 | 45.6 (≈ 213 µM) | 6 | 60.1 (≈ 281 µM) | 5.2 | 48.2 (≈ 225 µM) | 4.3
12 | O=S(=O)(F)/C=C/C=C/c1ccccc1C(F)(F)F | 55.1 (≈ 197 µM) | 4.1 | 55.1 (≈ 197 µM) | 4.3 | 52.6 (≈ 188 µM) | 4.1
13 | O=S(=O)(F)/C=C/c1cccc(/C=C/S(=O)(=O)F)c1 | 44.1 (≈ 150 µM) | 4.2 | 50 (≈ 170 µM) | 4.4 | 41.2 (≈ 140 µM) | 6.5
14 | O=S(=O)(F)/C=C/c1cnn(-c2ccccc2)c1 | 51.2 (≈ 203 µM) | 3.1 | 51.1 (≈ 203 µM) | 3.5 | 52.3 (≈ 207 µM) | 4.3
15 | O=S(=O)(F)/C=C/C=C/c1ccc(/C=C/S(=O)(=O)F)cc1 | 66.8 (≈ 209 µM) | 5.3 | 55 (≈ 172 µM) | 3.5 | 56 (≈ 175 µM) | 4.2
16 | O=S(=O)(F)/C=C/C=C/c1ccc(Br)cc1 | 51.1 (≈ 176 µM) | 4.5 | 70 (≈ 241 µM) | 4.5 | 57 (≈ 196 µM) | 5.4
